Reference: ChEMBL document CHEMBL1201862, “PubChem BioAssay data set” (2004)
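How tested: cells in 96-well plates exposed to compound for 48 hours at five concentrations. GI50 marks 50% less growth.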 The source made the active and inactive calls. Rule as the data show it: active = GI50 up to about 1.1 µM and inactive = higher.

How the values were obtained:
Assay in all cases: NCI anticancer screen, dose series, 48 h
[1] = test system: DMS-273
[2] = test system: XF498
[3] = test system: DMS-114
[4] = test system: M19-MEL
[5] = test system: LXFL 529
[6] = test system: RXF 631
[7] = test system: HOP-18
[8] = test system: SNB-78
[9] = test system: DLD-1

Measured: GI50

C=CCN(N=O)C(=O)N(CCCC(NC(C)=O)C(=O)NCc1ccccc1)Cc1ccccc1 (configuration not stated)
inactive: [1] 95.7 µM | [2] 36.3 µM | [3] 36.9 µM | [4] 44.4 µM | [5] 46.1 µM | [6] 47.2 µM

COC(=O)/C(=N\NC(N)=O)C(C(=O)C=C(C)C)C(=O)C(=O)Nc1ccc(Cl)c(Cl)c1 (configuration not stated)
inactive: [1] > 100 µM | [7] > 100 µM | [2] > 100 µM | [3] > 100 µM | [4] > 100 µM | [5] > 100 µM | [6] > 100 µM | [8] > 100 µM | [9] > 100 µM

COc1ccccc1NC(=O)CC(=O)NNCC(=O)Nc1nnc(-c2ccccc2)o1
inactive: [1] > 100 µM | [2] > 100 µM | [3] > 100 µM | [4] > 100 µM | [5] > 100 µM | [6] > 100 µM | [8] > 100 µM | [9] > 100 µM

C[C@]12CCC[C@H](OC=O)C1(O)C[C@H](C(=O)O)CC2 (some centres not stated)
inactive: [1] > 100 µM | [7] > 100 µM | [2] > 100 µM | [3] > 100 µM | [4] > 100 µM | [5] > 100 µM | [6] > 100 µM | [8] > 100 µM | [9] > 100 µM

CCN(CC)c1ccc(/N=C2/C=CC(=C(C#N)C#N)c3ccccc32)c(C)c1
inactive: [1] 1.85 µM | [7] 2.32 µM | [2] 1.44 µM | [4] 1.94 µM | [8] 1.63 µM | [9] 2.44 µM

COC(=O)/C(=N/NC(=O)C[N+](C)(C)C)C(C(=O)OC)C(=O)C(=O)Nc1ccc(F)cc1 (configuration not stated)
inactive: [1] > 100 µM | [7] > 100 µM | [3] > 100 µM | [4] > 100 µM | [5] > 100 µM | [6] > 100 µM | [8] > 100 µM | [9] > 100 µM

COc1ccc(C(C#N)NNC(=O)Cc2ccccc2)cc1OC (configuration not stated)
inactive: [1] > 100 µM | [7] > 100 µM | [3] > 100 µM | [4] > 100 µM | [5] > 100 µM | [8] > 100 µM | [9] > 100 µM

COc1ccc(NC(=O)NS(=O)(=O)c2ccc(C)cc2)nn1
inactive: [1] > 100 µM | [7] > 100 µM | [2] > 100 µM | [3] > 100 µM | [4] > 100 µM | [5] > 100 µM | [6] > 100 µM | [8] > 100 µM | [9] > 100 µM

c1ccc2c(c1)Sc1ccccc1N2C1CN2CCC1CC2 (configuration not stated)
inactive: [1] 16.4 µM | [7] 18.2 µM | [2] 13.9 µM | [3] 17.9 µM | [4] 16 µM | [5] 16.9 µM | [8] 14.4 µM | [9] 15.8 µM

CC(=O)NC(ON1C(=O)COc2ccccc21)C(Cl)(Cl)Cl (configuration not stated)
inactive: [1] > 100 µM | [2] > 100 µM | [5] > 100 µM | [8] > 100 µM | [9] > 100 µM

CCOc1ccc(/N=C/c2cccc3cccnc23)cc1
inactive: [1] 81.3 µM | [7] > 100 µM | [2] > 100 µM | [3] 88.7 µM | [4] > 100 µM | [5] 13.2 µM | [6] > 100 µM | [8] > 100 µM | [9] 51.4 µM

CSc1nc(-c2ccccc2)nc(N2CCOCC2)[s+]1
inactive: [1] > 100 µM | [7] > 100 µM | [4] > 100 µM | [5] 37.3 µM | [8] > 100 µM | [9] 91.8 µM

Cc1ccc(S(=O)(=O)SCc2ccccc2)cc1
inactive: [1] 28.1 µM | [7] > 80.4 µM | [2] 35.5 µM | [3] 22.2 µM | [4] 33.7 µM | [5] 14.3 µM | [8] 18.5 µM | [9] 5.31 µM

CC1(C)OC(COCCOCCCCCO)C(COCCOCCCCCO)O1 (configuration not stated)
inactive: [1] > 100 µM | [7] > 100 µM | [3] > 100 µM | [4] > 100 µM | [5] > 100 µM | [6] > 100 µM | [8] > 100 µM | [9] > 100 µM

Cc1ccccc1NC(=O)Cc1nc2ccccc2s1
inactive: [1] 17.6 µM | [7] 1.72 µM | [2] 14.5 µM | [5] 16.4 µM | [6] 16 µM | [8] 18.6 µM | [9] 7.08 µM

[Zn+2][N+]12CCN3CCN4CCN(CC1)[PH]432 (configuration not stated)
inactive: [1] > 100 µM | [7] > 100 µM | [3] > 100 µM | [4] > 100 µM | [5] > 100 µM | [8] > 100 µM | [9] > 100 µM

O=C(O)CNCc1c2ccccc2nc2ccccc12
inactive: [1] 40.2 µM | [7] > 100 µM | [2] 28.8 µM | [3] 20.7 µM | [4] 54.7 µM | [5] 26.5 µM | [8] 54 µM | [9] 33.3 µM

C=CCN(N=O)C(=O)N(CCC)CCCC(NC(C)=O)C(=O)NCc1ccccc1 (configuration not stated)
inactive: [1] > 100 µM | [7] > 100 µM | [2] > 100 µM | [3] > 100 µM | [4] > 100 µM | [5] > 100 µM | [6] > 100 µM

CC1CC(c2ccccc2)=Nc2ccccc2S1(=O)=O (configuration not stated)
inactive: [1] 20.1 µM | [7] 13.9 µM | [2] 18.6 µM | [3] 20.9 µM | [4] 14.9 µM | [5] 15.3 µM | [6] > 10 µM | [8] 15 µM | [9] 15.1 µM

CN(C)CCNC(=O)c1ccccc1Nc1c(Cl)cccc1Cl
inactive: [1] 16.9 µM | [2] 9.66 µM | [4] 11.1 µM | [5] 17.7 µM | [8] 16.4 µM | [9] 18.2 µM

Cc1cc(Cl)ccc1NC(=O)CCCC(=O)C1CCC/C1=N\NC(=O)CC#N (configuration not stated)
inactive: [1] > 100 µM | [7] 17.2 µM | [2] > 100 µM | [3] > 100 µM | [4] > 100 µM | [5] > 100 µM | [6] > 100 µM | [8] > 100 µM | [9] > 100 µM

Cc1cc2c(c(C(=O)O)c1C)-c1cccc(Cl)c1C2=O
inactive: [1] > 100 µM | [2] > 100 µM | [3] > 100 µM | [4] > 100 µM | [5] > 100 µM | [8] > 100 µM | [9] > 100 µM

CN(C)C(c1ccccc1)C(O)c1ccccc1 (configuration not stated)
inactive: [1] > 100 µM | [7] > 100 µM | [2] > 100 µM | [3] > 100 µM | [4] > 100 µM | [5] > 100 µM | [6] > 100 µM | [8] > 100 µM | [9] > 100 µM

COc1ccc2c(c1)[n+]([O-])c(-c1ccc(Br)cc1)c(N)[n+]2[O-]
inactive: [1] 24.1 µM | [7] > 100 µM | [2] 68.4 µM | [3] 23.1 µM | [4] 44.3 µM | [8] 54.6 µM | [9] 44.6 µM
